Measured values published in patent US20260083865A1, “PROSTATE SPECIFIC MEMBRANE ANTIGEN (PSMA) LIGANDS AND USE THEREOF” (priority 2022, published 2026).
Like-named read-outs stand apart in the source and are kept apart here. Numbered stars: 1 amine (or outer) side, 2 acyl side, 3 side chain; on linkers, the order of the positions; unused ones are H or OH. Bridge positions count the residues as written; N and C are the ends. Square brackets hold non-standard residues; d marks the D form. Peptide text beside a SMILES is read from it. * marks the point of attachment. TtdsdLys(DOTA)NH2 = NC(=O)[C@@H](CCCCNC(=O)CN1CCN(CC(=O)O)CCN(CC(=O)O)CCN(CC(=O)O)CC1)NC(=O)CCC(=O)NCCCOCCOCCOCCCN*; DOTA = O=C(O)CN1CCN(CC(=O)O)CCN(CC(=O)*)CCN(CC(=O)O)CC1; Trp(5-Cl) = N[C@@H](Cc1c[nH]c2ccc(Cl)cc12)C(=O)O; Phe(4-Cl) = N[C@@H](Cc1ccc(Cl)cc1)C(=O)O; Propanoyl(3-SO2NH2) = NS(=O)(=O)CCC(=O)*; Arg(Me) = CNC(=N)NCCC[C@H](N)C(=O)O; X1 = O=C(CC1CCN([*:1])CC1)[*:2]; Cit = NC(=O)NCCC[C@H](N)C(=O)O; Lys(Me) = CNCCCC[C@H](N)C(=O)O; Tle = CC(C)(C)[C@H](N)C(=O)O; Propanoyl(3-OH) = O=C(CCO)*; NHCH2tBu = CC(C)(C)CN*; Aib = CC(C)(N)C(=O)O

Legend:
[1] = target: T1, PSMA-expressing C4-2 cells (Homo sapiens, UniProt Q04609); test: FACS binding assay (competition with 50 nM PSM-0183); details: read-out: pIC50 [C4-2] CAT (converted)
T1 construct: PSMA-expressing C4-2 cells (ATCC, Cat. No. CRL-3314) were cultured in RPMI-1640; host or cells: C4-2 cells
Method in brief: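 Competition format: fluorescent tracer PSM-0183 (50 nM) displaced from PSMA on C4-2 cells by a test compound titration over 1 h at 4 °C. Bound tracer was quantified as flow-cytometric AF488 median fluorescence after washing. Four-parameter logistic fits of MFI data gave IC50 and pIC50.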

[2] = target: T2, Fc-fusion protein of human PSMA (hPSMA-Fc) (Homo sapiens, UniProt Q04609); test: Surface plasmon resonance assay (Biacore T200, single cycle kinetic); assay type: binding; details: read-out: pKD CAT (converted)
T2 construct: purchased Acro Biosystems PSA-H5264
Method in brief: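 KD, expressed as pKD, came from 1:1 Langmuir fits of reference- and buffer-blank-subtracted SPR data. The runs were single-cycle kinetics at 25° C in HBST/0.1% DMSO over human PSMA-Fc, captured to ~1000 RU on a peptide-coated CM5 surface and regenerated with 10 mM glycine pH 1.5.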

[3] = pIC50 category of FACS binding, C4-2 cells
[4] = pKD category for PSMA SPR activity assay, hPSMA-Fc, 25° C.
[5] = FACS binding, PSMA-expressing C4-2 cells, pIC50 category
[6] = PSMA SPR assay, hPSMA-Fc, 25° C., pKD category

T1 sequence (Q04609 whole entry): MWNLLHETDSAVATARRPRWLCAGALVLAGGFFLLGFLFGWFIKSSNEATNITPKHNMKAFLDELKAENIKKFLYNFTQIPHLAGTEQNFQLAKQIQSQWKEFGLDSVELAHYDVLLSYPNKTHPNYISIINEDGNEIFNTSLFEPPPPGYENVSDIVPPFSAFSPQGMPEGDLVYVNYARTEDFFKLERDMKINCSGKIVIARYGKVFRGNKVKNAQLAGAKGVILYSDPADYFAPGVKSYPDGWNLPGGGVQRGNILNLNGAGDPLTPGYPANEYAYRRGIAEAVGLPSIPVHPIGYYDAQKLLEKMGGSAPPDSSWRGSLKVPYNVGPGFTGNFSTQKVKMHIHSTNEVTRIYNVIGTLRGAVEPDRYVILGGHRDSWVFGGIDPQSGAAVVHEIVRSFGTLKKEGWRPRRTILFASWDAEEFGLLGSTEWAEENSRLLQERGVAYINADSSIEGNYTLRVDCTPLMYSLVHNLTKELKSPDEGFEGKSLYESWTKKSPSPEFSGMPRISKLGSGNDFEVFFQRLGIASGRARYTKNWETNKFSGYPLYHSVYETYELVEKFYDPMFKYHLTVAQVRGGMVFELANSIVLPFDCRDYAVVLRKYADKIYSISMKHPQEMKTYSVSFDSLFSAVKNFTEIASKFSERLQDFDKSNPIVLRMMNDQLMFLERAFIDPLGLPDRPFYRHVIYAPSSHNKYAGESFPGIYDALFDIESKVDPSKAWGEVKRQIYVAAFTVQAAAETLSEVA
T2 sequence (Q04609 44-750 limits assumed): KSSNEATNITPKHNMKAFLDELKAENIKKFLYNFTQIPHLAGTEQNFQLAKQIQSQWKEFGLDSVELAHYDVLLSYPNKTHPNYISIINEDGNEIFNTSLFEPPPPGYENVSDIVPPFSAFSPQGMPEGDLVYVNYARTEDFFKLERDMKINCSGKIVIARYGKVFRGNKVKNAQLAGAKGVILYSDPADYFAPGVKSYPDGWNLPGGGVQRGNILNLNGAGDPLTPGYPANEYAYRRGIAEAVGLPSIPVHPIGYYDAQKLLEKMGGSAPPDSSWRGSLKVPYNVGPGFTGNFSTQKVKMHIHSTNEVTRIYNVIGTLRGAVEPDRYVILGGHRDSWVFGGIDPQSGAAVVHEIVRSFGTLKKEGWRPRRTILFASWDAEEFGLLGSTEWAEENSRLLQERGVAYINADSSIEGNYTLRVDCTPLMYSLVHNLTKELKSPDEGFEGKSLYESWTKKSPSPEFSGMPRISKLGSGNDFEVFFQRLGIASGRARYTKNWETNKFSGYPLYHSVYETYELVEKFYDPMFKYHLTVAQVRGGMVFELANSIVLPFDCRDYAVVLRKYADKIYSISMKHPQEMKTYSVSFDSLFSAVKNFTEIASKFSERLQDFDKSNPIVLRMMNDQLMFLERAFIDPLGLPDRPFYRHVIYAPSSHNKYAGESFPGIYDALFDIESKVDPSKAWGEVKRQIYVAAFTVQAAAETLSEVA

**Q.** For `C[C@@H](O)[C@H](NC(=O)[C@@H](NC(=O)[C@@H]1CSSC[C@H](NC(=O)[C@H](Cc2ccccc2)NC(=O)C(C)(C)NC(=O)CCO)C(=O)N[C@@H](CCCCN)C(=O)N[C@@H](CCCNC(=N)N)C(=O)NC(C)(C)C(=O)N[C@@H](CC(N)=O)C(=O)N1)C(C)(C)C)C(N)=O` [PSM-0530, HPA-Aib-Phe-[Cys-Lys-Arg-Aib-Asn-Cys]-Tle-Thr-NH2] ({Propanoyl(3-OH)}-[Aib]FCKR[Aib]NC[Tle]T-NH2; disulfide 3-8), which IC50 [1, 3] is on record?
**A.** < 0.2 µM

**Q.** What about the Kd [2, 4] of the same compound?
**A.** < 0.0126 µM

**Q.** Which results are given for `CC(=O)N[C@H](C(=O)NC(C)(C)C(=O)N[C@@H](Cc1ccccc1)C(=O)N[C@H]1CSSC[C@@H](C(=O)NCC(C)(C)C)NC(=O)[C@H](CC(N)=O)NC(=O)C(C)(C)NC(=O)[C@H](CCCNC(=N)N)NC(=O)[C@H](CCCCN)NC1=O)[C@@H](C)O` [PSM-0208, Ac-Thr-Aib-Phe-[Cys-Lys-Arg-Aib-Asn-Cys]-NHnPen] (Ac-T[Aib]FCKR[Aib]NC-NHCH2tBu; disulfide 4-9)?
**A.** IC50 ([1]; FACS binding, C4-2 cells, competition with 50 nM PSM-0183, category): 0.2 to 1.26 µM; Kd ([2]; SPR, hPSMA-Fc, single cycle kinetic, 25° C., category): 0.126 to 0.501 µM

**Q.** For `CC(=O)N[C@H](C(=O)NC(C)(C)C(=O)N[C@@H](Cc1ccccc1)C(=O)N[C@H]1CSSC[C@@H](C(=O)N[C@H](C(=O)N[C@H](C(=O)N[C@@H](CC(=O)O)C(N)=O)[C@@H](C)O)C(C)(C)C)NC(=O)[C@H](CC(N)=O)NC(=O)[C@H](C)NC(=O)[C@H](CCCNC(=N)N)NC(=O)[C@H](CCC(=O)O)NC1=O)[C@@H](C)O` [PSM-0291, Ac-Thr-Aib-Phe-[Cys-Glu-Arg-Ala-Asn-Cys]-Tle-Thr-Asp-NH2] (Ac-T[Aib]FCERANC[Tle]TD-NH2; disulfide 4-9), which IC50 [1, 5] is on record?
**A.** 1.26 to 3.16 µM

**Q.** What about the Kd [2, 6] of the same compound?
**A.** > 0.501 µM

**Q.** Which IC50 [1, 5] does the source give for `C[C@@H](O)[C@H](NC(=O)[C@@H](NC(=O)[C@@H]1CSSC[C@H](NC(=O)[C@H](Cc2ccc(Cl)cc2)NC(=O)C(C)(C)NC(=O)CCS(N)(=O)=O)C(=O)N[C@@H](CCCCN)C(=O)N[C@@H](CCCNC(=N)N)C(=O)NC(C)(C)C(=O)N[C@@H](CC(N)=O)C(=O)N1)C(C)(C)C)C(=O)N[C@H](CCCCNC(=O)CN1CCN(CC(=O)O)CCN(CC(=O)O)CCN(CC(=O)O)CC1)C(N)=O` [PSM-0328, SaPr-Aib-Pcf-[Cys-Lys-Arg-Aib-Asn-Cys]-Tle-Thr-lys(DOTA)-NH2] ({Propanoyl(3-SO2NH2)}-[Aib][Phe(4-Cl)]CKR[Aib]NC[Tle]T[dK](DOTA)-NH2; disulfide 3-8) here?
**A.** < 0.2 µM

**Q.** What about the Kd [2, 6] of the same compound?
**A.** < 0.0126 µM

**Q.** With `CC(=O)N[C@H](C(=O)NC(C)(C)C(=O)N[C@@H](Cc1ccc(Cl)cc1)C(=O)N[C@H]1CSSC[C@@H](C(=O)N[C@H](C(=O)N[C@H](C(N)=O)[C@@H](C)O)C(C)(C)C)NC(=O)[C@H](CCC(=O)O)NC(=O)C(C)(C)NC(=O)[C@H](CCCNC(N)=O)NC(=O)[C@H](CCCCN)NC1=O)[C@@H](C)O` [PSM-0496, Ac-Thr-Aib-Pcf-[Cys-Lys-Cit-Aib-Glu-Cys]-Tle-Thr-NH2] (Ac-T[Aib][Phe(4-Cl)]CK[Cit][Aib]EC[Tle]T-NH2; disulfide 4-9) as the compound, how does the IC50 [1, 3] read?
**A.** < 0.2 µM

**Q.** And the Kd [2, 4]?
**A.** 0.0126 to 0.126 µM

**Q.** For `CNCCCC[C@@H]1NC(=O)[C@@H](NC(=O)[C@H](Cc2c[nH]c3ccc(Cl)cc23)NC(=O)C(C)(C)NC(=O)[C@@H](NC(=O)CC2CCN(C(=O)CN3CCN(CC(=O)O)CCN(CC(=O)O)CCN(CC(=O)O)CC3)CC2)[C@@H](C)O)CSSC[C@@H](C(=O)N[C@H](C(=O)N[C@H](C(N)=O)[C@@H](C)O)C(C)(C)C)NC(=O)[C@H](CC(N)=O)NC(=O)C(C)(C)NC(=O)[C@H](CCCNC(=N)NC)NC1=O` [PSM-0308, DOTA-Cmp-Thr-Aib-5Clw-[Cys-Lys(Me)-Arg(Me)-Aib-Asn-Cys]-Tle-Thr-NH2] ({DOTA}-[X1]T[Aib][Trp(5-Cl)]C[Lys(Me)][Arg(Me)][Aib]NC[Tle]T-NH2; disulfide 5-10), which IC50 [1, 5] is on record?
**A.** 0.2 to 1.26 µM

**Q.** And the Kd [2, 6]?
**A.** 0.126 to 0.501 µM

**Q.** For `CC(=O)N[C@H]1CSSC[C@@H](C(=O)N[C@@H](CC(C)C)C(=O)N[C@H](C(=O)N[C@@H](CC(=O)O)C(=O)NCCCOCCOCCOCCCNC(=O)CCC(=O)N[C@H](CCCCNC(=O)CN2CCN(CC(=O)O)CCN(CC(=O)O)CCN(CC(=O)O)CC2)C(N)=O)[C@@H](C)O)NC(=O)[C@H](CC(N)=O)NC(=O)[C@H](C)NC(=O)[C@H](CCCNC(=N)N)NC(=O)[C@H](CCCCN)NC1=O` [PSM-0591, Ac-[Cys-Lys-Arg-Ala-Asn-Cys]-Leu-Thr-Asp-Ttds-lys(DOTA)-NH2] (Ac-CKRANCLTD-{TtdsdLys(DOTA)NH2}; disulfide 1-6), which IC50 ([1]; FACS binding, C4-2 cells, category) is on record?
**A.** > 3.16 µM

**Q.** And the Kd ([2]; PSMA SPR assay, category)?
**A.** > 0.501 µM
